In patent US11793849B2, “Method of Chinese herbal medicine extract used for treating multiple diseases caused by drug resistant bacteria infection” (priority 2016, dated 2023):
≈ marks a conversion by molar mass, not a printed value. Read-outs that look alike come from different tables or passages of the source.

Test system: MDRPA
Test: MIC determination, microdilution broth method;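 further: broth microdilution per NCCLS recommendations, testing Pithecellobium clypearia water or ethanol extracts against multidrug-resistant Pseudomonas aeruginosa, with MIC50 and MIC90 derived statistically from individual MICs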
[1] = 20 MDRPAs, EA = 60% ethanol extract
[2] = 20 MDRPAs, EA = 95% ethanol extract
[3] = MDRPAs P1-P20, single use, EA=P. clypearia 10% ethanol extract
[4] = MDRPAs P1-P20, single use, EA=P. clypearia water extract
[5] = single use, 20 MDRPAs, section of the 10% ethanol extract
[6] = single use, 20 MDRPAs, section of the 60% ethanol extract
[7] = single use, 20 MDRPAs, section of the 95% ethanol extract

## CCN1CCN(C(=O)N[C@@H](C(=O)N[C@@H]2C(=O)N3C(C(=O)O)=C(CSc4nnnn4C)CS[C@H]23)c2ccc(O)cc2)C(=O)C1=O [CFP, Cefoperazone]
[1]
  MIC50: 64 mg/L (≈ 99.1 µM)
  MIC90: 512 mg/L (≈ 793 µM)
  MIC Range: 8 to 512 mg/L
[2]
  MIC50: 64 mg/L (≈ 99.1 µM)
  MIC90: 512 mg/L (≈ 793 µM)
  MIC Range: 8 to 512 mg/L
[3]
  MIC50: 64 mg/L (≈ 99.1 µM)
  MIC90: 512 mg/L (≈ 793 µM)
  MIC Range: 8 to 512 mg/L
[4]
  MIC50: 64 mg/L (≈ 99.1 µM)
  MIC90: 512 mg/L (≈ 793 µM)
  MIC Range: 8 to 512 mg/L
Pseudomonas aeruginosa
  MIC50: 64 mg/L (≈ 99.1 µM)
  MIC90: 512 mg/L (≈ 793 µM)
Pseudomonas aeruginosa, read-out: MIC (single use), strain P1, EA=P. clypearia 10% ethanol extract
  MIC: 128 mg/L (≈ 198 µM)
Pseudomonas aeruginosa, read-out: MIC (single use), strain P1, EA=P. clypearia water extract
  MIC: 128 mg/L (≈ 198 µM)
Pseudomonas aeruginosa, read-out: MIC (single use), strain P2, EA=P. clypearia 10% ethanol extract
  MIC: 256 mg/L (≈ 396 µM)
Pseudomonas aeruginosa, read-out: MIC (single use), strain P2, EA=P. clypearia water extract
  MIC: 256 mg/L (≈ 396 µM)
Pseudomonas aeruginosa, read-out: MIC (single use), strain P3, EA=P. clypearia 10% ethanol extract
  MIC: 16 mg/L (≈ 24.8 µM)
Pseudomonas aeruginosa, read-out: MIC (single use), strain P3, EA=P. clypearia water extract
  MIC: 16 mg/L (≈ 24.8 µM)
Pseudomonas aeruginosa, read-out: MIC (single use), strain P4, EA=P. clypearia 10% ethanol extract
  MIC: 8 mg/L (≈ 12.4 µM)
Pseudomonas aeruginosa, read-out: MIC (single use), strain P4, EA=P. clypearia water extract
  MIC: 8 mg/L (≈ 12.4 µM)
Pseudomonas aeruginosa, read-out: MIC (single use), strain P5, EA=P. clypearia 10% ethanol extract
  MIC: 512 mg/L (≈ 793 µM)
Pseudomonas aeruginosa, read-out: MIC (single use), strain P5, EA=P. clypearia water extract
  MIC: 512 mg/L (≈ 793 µM)
Pseudomonas aeruginosa, read-out: MIC (single use), strain P6, EA=P. clypearia 10% ethanol extract
  MIC: 512 mg/L (≈ 793 µM)
Pseudomonas aeruginosa, read-out: MIC (single use), strain P6, EA=P. clypearia water extract
  MIC: 512 mg/L (≈ 793 µM)
Pseudomonas aeruginosa, read-out: MIC (single use), strain P7, EA=P. clypearia 10% ethanol extract
  MIC: 512 mg/L (≈ 793 µM)
Pseudomonas aeruginosa, read-out: MIC (single use), strain P7, EA=P. clypearia water extract
  MIC: 512 mg/L (≈ 793 µM)
Pseudomonas aeruginosa, read-out: MIC (single use), strain P8, EA=P. clypearia 10% ethanol extract
  MIC: 16 mg/L (≈ 24.8 µM)
Pseudomonas aeruginosa, read-out: MIC (single use), strain P8, EA=P. clypearia water extract
  MIC: 16 mg/L (≈ 24.8 µM)
Pseudomonas aeruginosa, read-out: MIC (single use), strain P9, EA=P. clypearia 10% ethanol extract
  MIC: 64 mg/L (≈ 99.1 µM)
Pseudomonas aeruginosa, read-out: MIC (single use), strain P9, EA=P. clypearia water extract
  MIC: 64 mg/L (≈ 99.1 µM)
Pseudomonas aeruginosa, read-out: MIC (single use), strain P10, EA=P. clypearia 10% ethanol extract
  MIC: 8 mg/L (≈ 12.4 µM)
Pseudomonas aeruginosa, read-out: MIC (single use), strain P10, EA=P. clypearia water extract
  MIC: 8 mg/L (≈ 12.4 µM)
Pseudomonas aeruginosa, read-out: MIC (single use), strain P11, EA=P. clypearia 10% ethanol extract
  MIC: 8 mg/L (≈ 12.4 µM)
Pseudomonas aeruginosa, read-out: MIC (single use), strain P11, EA=P. clypearia water extract
  MIC: 8 mg/L (≈ 12.4 µM)
Pseudomonas aeruginosa, read-out: MIC (single use), strain P12, EA=P. clypearia 10% ethanol extract
  MIC: 512 mg/L (≈ 793 µM)
Pseudomonas aeruginosa, read-out: MIC (single use), strain P12, EA=P. clypearia water extract
  MIC: 512 mg/L (≈ 793 µM)
Pseudomonas aeruginosa, read-out: MIC (single use), strain P13, EA=P. clypearia 10% ethanol extract
  MIC: 256 mg/L (≈ 396 µM)
Pseudomonas aeruginosa, read-out: MIC (single use), strain P13, EA=P. clypearia water extract
  MIC: 256 mg/L (≈ 396 µM)
Pseudomonas aeruginosa, read-out: MIC (single use), strain P14, EA=P. clypearia 10% ethanol extract
  MIC: 8 mg/L (≈ 12.4 µM)
Pseudomonas aeruginosa, read-out: MIC (single use), strain P14, EA=P. clypearia water extract
  MIC: 8 mg/L (≈ 12.4 µM)
Pseudomonas aeruginosa, read-out: MIC (single use), strain P15, EA=P. clypearia 10% ethanol extract
  MIC: 64 mg/L (≈ 99.1 µM)
Pseudomonas aeruginosa, read-out: MIC (single use), strain P15, EA=P. clypearia water extract
  MIC: 64 mg/L (≈ 99.1 µM)
Pseudomonas aeruginosa, read-out: MIC (single use), strain P16, EA=P. clypearia 10% ethanol extract
  MIC: > 512 mg/L
Pseudomonas aeruginosa, read-out: MIC (single use), strain P16, EA=P. clypearia water extract
  MIC: > 512 mg/L
Pseudomonas aeruginosa, read-out: MIC (single use), strain P17, EA=P. clypearia 10% ethanol extract
  MIC: 16 mg/L (≈ 24.8 µM)
Pseudomonas aeruginosa, read-out: MIC (single use), strain P17, EA=P. clypearia water extract
  MIC: 16 mg/L (≈ 24.8 µM)
Pseudomonas aeruginosa, read-out: MIC (single use), strain P18, EA=P. clypearia 10% ethanol extract
  MIC: 256 mg/L (≈ 396 µM)
Pseudomonas aeruginosa, read-out: MIC (single use), strain P18, EA=P. clypearia water extract
  MIC: 256 mg/L (≈ 396 µM)
Pseudomonas aeruginosa, read-out: MIC (single use), strain P19, EA=P. clypearia 10% ethanol extract
  MIC: 64 mg/L (≈ 99.1 µM)
Pseudomonas aeruginosa, read-out: MIC (single use), strain P19, EA=P. clypearia water extract
  MIC: 64 mg/L (≈ 99.1 µM)
Pseudomonas aeruginosa, read-out: MIC (single use), strain P20, EA=P. clypearia 10% ethanol extract
  MIC: > 512 mg/L
Pseudomonas aeruginosa, read-out: MIC (single use), strain P20, EA=P. clypearia water extract
  MIC: > 512 mg/L
[5]
  MIC50: 64 mg/L (≈ 99.1 µM)
  MIC90: 512 mg/L (≈ 793 µM)
[6]
  MIC50: 64 mg/L (≈ 99.1 µM)
  MIC90: 512 mg/L (≈ 793 µM)
[7]
  MIC50: 64 mg/L (≈ 99.1 µM)
  MIC90: 512 mg/L (≈ 793 µM)
Strain P16, EA=P. clypearia 10% ethanol extract
  MIC (single use): 1024 mg/L (≈ 1590 µM)
Strain P16, EA=P. clypearia water extract
  MIC (single use): 1024 mg/L (≈ 1590 µM)
Strain P20, EA=P. clypearia 10% ethanol extract
  MIC (single use): 1024 mg/L (≈ 1590 µM)
Strain P20, EA=P. clypearia water extract
  MIC (single use): 1024 mg/L (≈ 1590 µM)
